For one data set, the system named is varicella zoster virus. In words: Informal trials: topical ivermectin lotion in patients with herpes zoster (shingles). The class given is in vivo, human. The source says:
For treating herpes zoster, preferably the surface of the affected area of the skin is gently scratched prior to rubbing the composition containing the macrocyclic lactone compound on the area. Gentle scratching abrades the stratumcorium, which allows better penetration of the macrocyclic lactone compound into the skin. The stratum corneum is the outermost layer of the epidermis, composed of large, polyhedral, plate-like envelopes filled with keratin, which is made up of dead cells that have migrated up from the stratum granulosum. As these dead cells slough off on the surface, they are continuously replaced by new cells from the stratum germinativum. Alternatively, the composition can be dispensed on the affected area, and then scratched into the area. Scratching with cleaned finger nails or a sterilized scraping tool, for example small sharp curette or a needle point, can be used.
(§1) The composition can be applied topically to the affected area one or more times a day, typically one to two times a day, when a herpes simplex episode occurs or during the course of shingles or chicken box. When the pain is severe, the composition can be applied more frequently to help alleviate the symptoms. Moreover, the composition can also be integrated into or applied on medical dressing, dermal patch, or lint free wipes, which can be applied to the affected area as needed, to provide a more extended exposure to the medication.
For herpes zoster, at the early onset the patient develops a patch of linear area of paresthesia, and hyperesthesia (burning, stinging, and pain). At this time, the composition containing ivermectin should be topically applied promptly and scratched into the skin. Concurrently, an oral antiviral medication can be used promptly.
(§2) Operating with informed consent of individuals, individuals were treated with the topical composition and the method of the present invention for treating herpes virus infection, more particularly herpes simplex and herpes zoster or shingles, as described in Examples 3 to 8.

Data set [1] relates to herpes simplex virus. In words: Informal trials: topical ivermectin lotion in patients with herpes simplex. The class given is in vivo, human.
Text: The composition of the present invention described above is applied to the affected area of patients having herpes simplex, herpes zoster, or chicken-pox. Preferably, the lotion, cream, gel, or ointment can be applied on the affected area with gentle rubbing to help penetration of the macrocyclic lactone compound into the skin. Moreover, when lotion, cream, or hydrogel is used, preferably the affected area is dampened by water first, then a drop of lotion, cream, or hydrogel is rubbed on the affected area by finger(s). […] Moreover, if blisters are already formed at the affected area, at the time of applying the topical composition the blisters can be broken using a needle, then the composition is rubbed in the lesion.
as §1
The most impressive results are seen with early recognition and treatment. […] In medicine, a prodrome is an early symptom (or set of symptoms) that might indicate the start of a disease before specific symptoms occur. Prodromes may be non-specific symptoms or, in some instances, may clearly indicate a particular disease. In herpes simplex there is a prodrome consisting of a change in sensation, typically slight numbness or a faint tingling sensation with vague swelling or induration.
as §2

A short description of data set [2]: Side effects and tolerability observed in treated patients. The class given is in vivo, human. Conditions: Example 5: person, high dose. The method, then: Operating with informed consent of individuals, individuals were treated with the topical composition and the method of the present invention for treating herpes virus infection, more particularly herpes simplex and herpes zoster or shingles, as described in Examples 3 to 8. In the above described informal trials, no adverse side effects or contra-indications were observed among the patients. The patients had no complaints of skin irritation, sensitivity or discomfort originating from the treatment.

Data set [3] has as its system herpes simplex virus. Conditions: cited from earlier work.
[4] abbreviates: topical composition, ivermectin concentration as low as 0.075%.

For `CC(=O)OCC(CCn1cnc2cnc(N)nc21)COC(C)=O` [Famvir®, famciclovir], in the data set on varicella zoster virus (Example 6: person, high dose), the “Response of severe pain with burning and tingling to prior therapy” value is “had not responded”.

With `CC(C)[C@H](N)C(=O)OCCOCn1cnc2c(=O)[nH]c(N)nc21` [Valtrex®, valacyclovir], the “Satisfaction with prior therapy” value in the data set with herpes simplex virus [1] (Example 5: person, high dose) was “without total satisfaction”. The “Side effects of prior therapy” value in data set [2] was “cardiac irregularities, especially bigeminy and trigeminy”.

On to `Nc1nc2c(ncn2COCCO)c(=O)[nH]1` [Zovirax®, acyclovir], for which the “Benefit of prior therapy, orally” value in the data set with herpes simplex virus [1] (Example 3: patient history, oral) is “with benefit”. Further, the “Benefit of prior therapy, topically” value in the data set with herpes simplex virus [1] (Example 3: patient history, topical) is recorded as “without benefit”.

Consider `O=c1[nH]c(=O)n([C@H]2C[C@H](O)[C@@H](CO)O2)cc1I` [idoxuridine], for which, in the data set on herpes simplex virus [3] (topical, reported in a study), the Pain duration result is given as “reduced pain duration” and the “Time to loss of crust” value is reported as “decreased time to loss of crust”.

For `Nc1nc2c(ncn2CCC(CO)CO)c(=O)[nH]1` [penciclovir], the “Duration of lesions, pain, and viral shedding” value in the data set with herpes simplex virus [3] (cream applied early and late in course of HSV infection (Hamuy et al. 1998)) was “decreased the duration of lesions, pain, and viral shedding”.

On to ivermectin, for which the “Effectiveness in treating herpes zoster” value with varicella zoster virus (setting [4]) was “effective”. In addition, the “Effect of combined systematic and topical treatments on severity of herpes zoster” value with varicella zoster virus (topical ivermectin composition with concurrent oral antiviral medication) is “synergistic effect in decreasing the severity”. Besides, the “Effectiveness in treating herpes simplex” value in the data set with herpes simplex virus [1] (setting [4]) is reported as “effective”.

Source of the values: US8901091B2, “Method of treating herpes virus infection using macrocyclic lactone compound” (Galderma S.A., priority 2010, dated 2014).
